Measured values reported in patent US20110172147A1, “NEUROPEPTIDE-2 RECEPTOR (Y-2R) AGONISTS” (priority 2009, published 2011).

Assays:
[1] = tested on: hypothalamic slices; settings: hypothalamic slices in vitro; cited from earlier work
[2] = molecular target: T1, Y1R (Homo sapiens, UniProt P25929); assay: CaFlux Assay (FLIPR), Y1R; type: cell-based
T1 sequence (P25929 1-384): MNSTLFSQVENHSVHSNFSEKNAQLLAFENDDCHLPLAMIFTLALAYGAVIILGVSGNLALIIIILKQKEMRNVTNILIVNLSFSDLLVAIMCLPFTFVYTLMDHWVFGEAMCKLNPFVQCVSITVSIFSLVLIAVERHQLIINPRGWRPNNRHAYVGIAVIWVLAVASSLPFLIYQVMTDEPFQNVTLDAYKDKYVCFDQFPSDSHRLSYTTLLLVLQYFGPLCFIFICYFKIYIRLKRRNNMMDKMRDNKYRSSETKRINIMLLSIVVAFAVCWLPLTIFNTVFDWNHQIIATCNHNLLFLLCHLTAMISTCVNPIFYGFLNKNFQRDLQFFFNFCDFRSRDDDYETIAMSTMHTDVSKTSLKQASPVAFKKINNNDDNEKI

[3] = molecular target: Y4R (Homo sapiens, UniProt P50391); assay: CaFlux Assay (FLIPR), Y4R; type: cell-based
Sequence of Y4R (P50391 whole entry): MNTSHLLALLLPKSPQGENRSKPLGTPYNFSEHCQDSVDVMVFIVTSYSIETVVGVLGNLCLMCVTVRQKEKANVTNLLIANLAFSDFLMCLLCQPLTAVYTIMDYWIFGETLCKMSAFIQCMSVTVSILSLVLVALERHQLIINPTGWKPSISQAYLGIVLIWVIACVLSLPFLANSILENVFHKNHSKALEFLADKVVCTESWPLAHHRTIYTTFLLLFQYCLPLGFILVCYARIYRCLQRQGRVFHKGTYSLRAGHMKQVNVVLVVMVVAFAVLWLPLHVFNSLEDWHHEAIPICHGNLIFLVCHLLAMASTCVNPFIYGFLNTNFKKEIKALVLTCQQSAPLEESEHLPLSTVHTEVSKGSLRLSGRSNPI

[4] = molecular target: T2, Y5R (Homo sapiens, UniProt Q15761); assay: CaFlux Assay (FLIPR), Y5R; type: cell-based
T2 sequence (Q15761 1-445): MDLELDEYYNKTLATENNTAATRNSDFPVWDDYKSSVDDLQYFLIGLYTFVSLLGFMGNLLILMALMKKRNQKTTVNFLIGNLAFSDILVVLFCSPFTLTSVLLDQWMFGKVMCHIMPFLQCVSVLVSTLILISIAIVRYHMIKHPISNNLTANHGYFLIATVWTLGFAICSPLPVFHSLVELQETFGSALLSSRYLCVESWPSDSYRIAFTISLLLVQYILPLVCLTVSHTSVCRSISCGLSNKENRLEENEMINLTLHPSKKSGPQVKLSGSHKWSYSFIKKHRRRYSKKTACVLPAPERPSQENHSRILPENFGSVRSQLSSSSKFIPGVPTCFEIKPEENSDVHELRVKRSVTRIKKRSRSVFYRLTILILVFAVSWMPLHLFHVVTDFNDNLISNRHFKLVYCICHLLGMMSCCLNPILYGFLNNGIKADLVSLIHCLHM

[5] = molecular target: T3, hNPY2R (Homo sapiens, UniProt P49146); assay: cAMP Agonist Assay, HEK293/hNPY2R; type: cell-based; design: expressed in transfected cells; host or cells: HEK293/hNPY2R (G418 selection)
T3 sequence (P49146 1-381): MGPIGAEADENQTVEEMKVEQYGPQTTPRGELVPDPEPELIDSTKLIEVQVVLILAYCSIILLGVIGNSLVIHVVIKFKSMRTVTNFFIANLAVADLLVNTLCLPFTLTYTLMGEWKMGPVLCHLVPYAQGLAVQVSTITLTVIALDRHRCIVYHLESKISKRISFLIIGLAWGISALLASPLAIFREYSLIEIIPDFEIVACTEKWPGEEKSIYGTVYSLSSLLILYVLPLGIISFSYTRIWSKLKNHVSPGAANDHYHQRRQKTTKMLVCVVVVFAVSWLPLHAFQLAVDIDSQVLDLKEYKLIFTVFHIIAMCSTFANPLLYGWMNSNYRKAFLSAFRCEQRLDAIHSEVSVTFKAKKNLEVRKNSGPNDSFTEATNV
How it was run: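 HEK293/hNPY2R cells (10,000/well, overnight) stimulated 30 min at room temperature with compound plus 5 μM forskolin and 0.5 mM IBMX (1.1% DMSO final). Lysate cAMP measured by competitive chemiluminescent ELISA (AP conjugate, CSPD substrate); quadruplicates.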

[6] = molecular target: T3, hNPY2R; assay: CaFlux Assay (FLIPR), Y2R; type: cell-based; design: expressed in transfected cells; host or cells: HEK-293 stably transfected with G protein chimera Gαqi9
How it was run: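 HEK-293 cells stably co-expressing chimeric Gαqi9 and the receptor were plated overnight at 37 °C, loaded 1 h at 37 °C with Calcium-3 dye in HBSS/20 mM HEPES/5 mM probenecid, then given compound on FLIPR. Peak fluorescence rise over 100 s, baseline-subtracted, expressed as % of positive-control maximum.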

SMILES	NPY release [1]	EC50 [2] [nM]	EC50 [3] [nM]	EC50 [4] [nM]	EC50 [5] [nM]	EC50 [6] [nM]
N=C(N)NCCC[C@H](NC(=O)CC1(CC(=O)N2CCN(C3c4ccccc4NC(=O)c4ccccc43)CC2)CCCC1)C(=O)NCCn1c(=O)n(-c2ccccc2)n(-c2ccccc2)c1=O (some centres unmarked) [BIIE0246]	increases NPY release					
CCCCCCCCCCCCCCCC(=O)NCCCCCC(=O)NCCCCCC(=O)N[C@@H](C(=O)N[C@@H](CCCCNC(=O)CCOCCOCCOCCOCCOCCOCCOCCOCCOCCOCCOCCOCCOCCOCCOCCOCCOCCOCCOCCOCCOCCOCCOCCOC)C(=O)N1CCN(c2ccc3ncn(CC(=O)N[C@@H](CCCNC(=N)N)C(=O)N[C@@H](Cc4c[nH]cn4)C(=O)N[C@@H](Cc4ccc(O)cc4)C(=O)N[C@@H](CC(C)C)C(=O)N[C@@H](CC(N)=O)C(=O)N[C@@H](Cc4c[nH]c5ccccc45)C(=O)N[C@H](C(=O)N[C@H](C(=O)N[C@@H](CCCNC(=N)N)C(=O)N[C@@H](CCC(N)=O)C(=O)N(C)[C@@H](CCCNC(=N)N)C(=O)N[C@@H](Cc4ccc(O)cc4)C(N)=O)[C@@H](C)O)C(C)C)c(=O)c3c2)CC1)[C@@H](C)CC [Example 43]		> 6000	> 6000	316	0.1	0.1
CCCCCCCCCCCCCCCCCCCC(=O)N[C@@H](CCC(=O)N[C@@H](CCC(=O)N[C@H](C(=O)N[C@@H](CCCCNC(=O)CCOCCOCCOCCOCCOCCOCCOCCOCCOCCOCCOCCOCCOCCOCCOCCOCCOCCOCCOCCOCCOCCOCCOCCOC)C(=O)N1CCN(c2ccc3ncn(CC(=O)N[C@@H](CCCNC(N)=O)C(=O)N[C@@H](Cc4c[nH]cn4)C(=O)N[C@@H](Cc4ccc(O)cc4)C(=O)N[C@@H](CC(C)C)C(=O)N[C@@H](CC(N)=O)C(=O)N[C@@H](Cc4c[nH]c5ccccc45)C(=O)N[C@H](C(=O)N[C@H](C(=O)N[C@@H](CCCNC(=N)N)C(=O)N[C@@H](CCC(N)=O)C(=O)N(C)[C@@H](CCCNC(=N)N)C(=O)N[C@@H](Cc4ccc(O)cc4)C(N)=O)[C@@H](C)O)C(C)C)c(=O)c3c2)CC1)[C@@H](C)CC)C(=O)O)C(=O)O [Example 61]		> 6000	> 6000	> 6000	0.28	0.243
CC[C@H](C)[C@H](NC(=O)CCCCCNC(=O)CCOCCOCCOCCOCCOCCOCCOCCOCCOCCOCCOCCOC)C(=O)N[C@@H](CCCCN)C(=O)N1CCN(c2ccc3ncn(CC(=O)N[C@@H](CCCNC(=N)N)C(=O)N[C@@H](Cc4c[nH]cn4)C(=O)N[C@@H](Cc4ccc(O)cc4)C(=O)N[C@@H](CC(C)C)C(=O)N[C@@H](CC(N)=O)C(=O)N[C@@H](Cc4c[nH]c5ccccc45)C(=O)N[C@H](C(=O)N[C@H](C(=O)N[C@@H](CCCNC(=N)N)C(=O)N[C@@H](CCC(N)=O)C(=O)N(C)[C@@H](CCCNC(=N)N)C(=O)N[C@@H](Cc4ccc(O)cc4)C(N)=O)[C@@H](C)O)C(C)C)c(=O)c3c2)CC1 [Example 18]		> 6000	> 6000	> 6000	0.9	0.357
CCCCCCCCCCCCCCCC(=O)NCCOCCNC(=O)CCC(=O)NCCCC[C@H](NC(=O)[C@@H](NC(=O)CCOCCOCCOCCOCCOCCOCCOCCOCCOCCOCCOCCOC)[C@@H](C)CC)C(=O)N1CCN(c2ccc3ncn(CC(=O)N[C@@H](CCCNC(=N)N)C(=O)N[C@@H](Cc4c[nH]cn4)C(=O)N[C@@H](Cc4ccc(O)cc4)C(=O)N[C@@H](CC(C)C)C(=O)N[C@@H](CC(N)=O)C(=O)N[C@@H](Cc4c[nH]c5ccccc45)C(=O)N[C@H](C(=O)N[C@H](C(=O)N[C@@H](CCCNC(=N)N)C(=O)N[C@@H](CCC(N)=O)C(=O)N(C)[C@@H](CCCNC(=N)N)C(=O)N[C@@H](Cc4ccc(O)cc4)C(N)=O)[C@@H](C)O)C(C)C)c(=O)c3c2)CC1 [Example 13]		> 5000	> 5000	401	0.15	0.055
CCCCCCCCCCCCCCCCCCCC(=O)N[C@@H](CCC(=O)O)C(=O)N[C@@H](CCC(=O)O)C(=O)N[C@H](C(=O)N[C@@H](CCCCNC(=O)CCOCCOCCOCCOCCOCCOCCOCCOCCOCCOCCOCCOCCOCCOCCOCCOC)C(=O)N1CCN(c2ccc3ncn(CC(=O)N[C@@H](CCCNC(=N)N)C(=O)N[C@@H](Cc4c[nH]cn4)C(=O)N[C@@H](Cc4ccc(O)cc4)C(=O)N[C@@H](CC(C)C)C(=O)N[C@@H](CC(N)=O)C(=O)N[C@@H](Cc4c[nH]c5ccccc45)C(=O)N[C@H](C(=O)N[C@H](C(=O)N[C@@H](CCCNC(=N)N)C(=O)N[C@@H](CCC(N)=O)C(=O)N(C)[C@@H](CCCNC(=N)N)C(=O)N[C@@H](Cc4ccc(O)cc4)C(N)=O)[C@@H](C)O)C(C)C)c(=O)c3c2)CC1)[C@@H](C)CC [Example 48]		> 9000	> 9000	4320	0.52	0.388
